Measured values as given in US11974990B2, “TXNIP-TRX complex inhibitors and methods of using the same” (City of Hope, priority 2018, dated 2024).
“Also recorded” adds a separate entry of the source.

Experiments:
[1] = biological target: T1, TXNIP (Homo sapiens, UniProt Q9H3M7); test: DARTS assay (drug affinity responsive target stability) in THP1 cell extracts; format: binding; details: THP1 extracts after 25 mM glucose 72 h; 10 and 20 minutes, 0.5 to 4 uM lanes (FIG. 15)
T1 construct: Cell extracts were prepared; endogenous in cells; host or cells: THP1 cell lysate (25 mM glucose, 72 h)
T1 sequence (Q9H3M7 1-391): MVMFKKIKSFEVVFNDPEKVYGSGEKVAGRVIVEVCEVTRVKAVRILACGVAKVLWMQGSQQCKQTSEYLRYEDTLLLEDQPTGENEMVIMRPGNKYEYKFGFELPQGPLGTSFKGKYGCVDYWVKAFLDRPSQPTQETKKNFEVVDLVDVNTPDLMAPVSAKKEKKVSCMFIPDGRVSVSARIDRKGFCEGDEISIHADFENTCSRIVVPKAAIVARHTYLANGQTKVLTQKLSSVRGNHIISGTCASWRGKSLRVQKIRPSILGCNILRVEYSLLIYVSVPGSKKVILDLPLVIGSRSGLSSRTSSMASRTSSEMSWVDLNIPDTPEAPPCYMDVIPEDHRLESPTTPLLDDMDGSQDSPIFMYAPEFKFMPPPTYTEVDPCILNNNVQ
Experimental: FIG. 15. […] THP1 cell were cultured in RPMI 1640 medium in 25 mM glucose for 72 hours. Cell extracts were prepared. C1 was added at the indicated concentrations and protease was added except in control cells. Aliquots were withdrawn at 10, 20, 30 and 40 minutes and loaded onto 10% SDS gels. C1: compound 1; control: without protease.
Assay 3: DARTS Assay (drug affinity responsive target stability). We adopted the DARTS assay because it is a straightforward method to check if a compound interacts with TXNIP. In this assay, when a compound binds to its target molecule, it can reduce the rate of its proteolytic digestion.
The drug affinity response target stability assay (DARTS assay) is a method to identify potential protein targets (binders) of small molecules. The advantage of this method is being able to use the native small molecule without having to immobilize or modify the […] (e.g., by incorporation of biotin, fluorescent molecules, radioisotope, or photo-affinity labels). In this case, it relies on the protection against proteolysis conferred on TXNIP by interaction with a small molecule (lead compound).
Drug affinity responsive target stability (DARTS) assay. DARTS assay was conducted according to a published protocol (Lomenick et al., 2009; Pai et al., 2015). THP1 cells were lysed with extract buffer. […]

[2] = biological target: T2, purified TXNIP (Homo sapiens, UniProt Q9H3M7); test: DARTS assay with purified TXNIP and TRX1 proteins; format: binding; details: purified TXNIP + TRX1, protease, 7 minutes (FIG. 16)
T2 construct: purchased LSBio (TXNIP); Sigma (TRX1); host or cells: E. coli (TXNIP)
T2 sequence (Q9H3M7 1-391): T1 sequence (Q9H3M7 1-391)
Experimental: FIG. 16. […] Purified TRX and TXNIP proteins and C1 (at the indicated concentrations) were mixed together. Protease was added. Aliquots were withdrawn at 7 minutes and loaded on 10% SDS gels. C1: compound 1; control: without protease.
To further confirm that C1 is able to protect TXNIP from proteolysis in the presence of TXNIP+TRX1, we performed DARTS assay using pure TXNIP protein (LSBio) and TRX1 protein (Sigma). The TRX1 protein we employed is also usually used for TRX1 activity assays. In contrast, the TXNIP protein is generated by E. coli and might not be in the active form. Therefore, we re-natured the protein prior to use in the DARTS assay.

[3] = tested on: TXNIP mRNA; test: TXNIP mRNA expression (RT-PCR) in murine RAW macrophages; format: cell-based; details: RAW cells, 25 mM glucose, 72 h (FIG. 10A)
Experimental: (§1) FIGS. 10A-10B. FIG. 10A. […] RAW cells were cultured in 25 mM glucose with C1 (uM) for 72 h. Total RNA was prepared. RT-PCR was performed. Data shown are the mean+SEM from triplicates. Statistical analysis was performed for each column vs. high glucose (HG) DMSO using one-way ANOVA: *<0.0001. FIG. 10B. […] RAW cells were cultured in 25 mM glucose with C1 (uM) for 72 hours. Total RNA was prepared. RT-PCR was performed. Data shown are the mean+SEM from triplicates. Statistical analysis was performed for each column vs. HG DMSO using one-way ANOVA: *<0.0001.
(§2) RNA extraction and quantitative RT-PCR. RNA was extracted using the Direct-zol™ RNA MiniPrep Plus (Zymo Research). Reverse transcription of RNA samples into cDNA was performed using the GeneAmp RNA PCR Kit (Applied Biosystems), dNTP (from Roche Applied Science), Rnase inhibitor, MULV Reverse Transcriptase and Random hexamers reagent (all from Invitrogen). Diluted cDNA was quantified using real-time PCR performed with Power SYBR Green qPCR MasterMix (Applied Biosystem) and 7500 real-time PCR system (Applied Biosystems). The HPRT1 gene was used as an internal control.

[4] = tested on: TNF-α mRNA; test: TNF-α mRNA expression (RT-PCR) in murine RAW macrophages; format: cell-based; details: RAW cells, 25 mM glucose, 72 h (FIG. 10B)
Experimental: as §1, §2

[5] = tested on: TXNIP mRNA; test: TXNIP mRNA expression (RT-PCR) in murine MIN6 pancreatic beta cells; format: cell-based; details: 25 mM glucose, 72 h (FIG. 11 left)
Experimental: FIG. 11. […] MIN6 cells were cultured in 25 mM glucose with C1 at uM concentrations for 72 h. Total RNA was prepared. RT-PCR was performed. Data shown are the mean+SEM from triplicates. Statistical analysis was performed for each column vs. HG DMSO using one-way ANOVA: *<0.0001.
as §2

[6] = Preliminary cell toxicity study in THP1 cells; format: cell-based; details: human

What does the source list for `CC(C)C(C(=O)O)N1C(=O)c2ccncc2C1=O` (stereo not drawn) [Compound C1, 2-(1,3-dioxo-1,3-dihydro-2H-pyrrolo[3,4-c]pyridin-2-yl)-3-methylbutanoic acid]?
protection of TXNIP from proteolysis [1]: stabilizes TXNIP by binding to it; also recorded: bind to TXNIP and prevent its proteolysis; also recorded: protects TXNIP from proteolysis; protection of purified TXNIP from proteolysis [2]: protects purified TXNIP from proteolysis; TXNIP mRNA expression [3]: inhibits TXNIP mRNA expression; also recorded: inhibited TXNIP and TNF-α mRNA expression; TNF-α mRNA expression [4]: decreased TNF-α mRNA expression; also recorded: inhibited TXNIP and TNF-α mRNA expression; TXNIP mRNA levels [5]: decreased TXNIP; IC50 [6]: 450 µM
